Usually AUC(0-inf) stands for total exposure, with the tail of the curve extrapolated. Read a high AUC(0-inf) as more exposure. By Cmax is commonly meant the maximum level reached in the sampled fluid or tissue.

Entries after “also recorded” stand apart in the source; their conditions may differ.

A short description of data set [1]: Pharmacokinetics in mouse (IV bolus or oral dose). The class given is in vivo. To be noted: Mouse; for Cmax: read-out: Cmax. The method, then:
(§1) The pharmacokinetics properties of drugs were investigated in three species, following an intravenous (IV) bolus or oral (PO) dose of Compound K at the dosages indicated in the chart. Blood samples were collected at predetermined times and the plasma separated. Plasma was separated from the blood samples collected at 5, 15 and 30 minutes and 1, 2, 4, 8 and 24 hours post-dose.
Drug levels were quantified by the LC/MS/MS method described below. Noncompartmental pharmacokinetic analysis was applied for intravenous administration. […] The terminal t1/2 and C0 were calculated using the last three and the first three data points, respectively
(§2) Bioanalysis was performed using a Quattro Micro LC/MS/MS instrument in the MRM detection mode, with an internal standard (1S). Briefly, 15 μL plasma samples were prepared for analysis using protein precipitation with 120 μL of acetonitrile. The supernatants were transferred into a 96 well plate and subjected to LC-MS/MS analysis using a Phenomenex Polar-RP HPLC column. The mobile phases were 10 mM NH4HCO3 in water (Solution-A) and 10 mM NH4HCO3 in methanol (Solution-B). The column was initially equilibrated with 25% Solution-B and followed with 100% Solution B over 5 minutes. […] Quantitation of the analytes was performed in the batch mode with two bracketing calibration curves according to the bioanalytical sample list.

Data set [2] is described as follows: Pharmacokinetics in rat (IV bolus or oral dose). It counts as in vivo. As to the method:
as §1
Drug levels were quantified by the LC/MS/MS method described below. Noncompartmental pharmacokinetic analysis was applied for intravenous administration. A linear trapezoidal rule was used to compute AUC(0-24). The terminal t1/2 and C0 were calculated using the last three and the first three data points, respectively
as §2

Data set [3] concerns formalin-induced persistent pain. Put plainly: Formalin-induced persistent pain model (flinching). The class given is in vivo, ICR mice. As to the method:
See Hunskaar, et al., “The formalin test in mice: Dissociation between inflammatory and non-inflammatory pain,” Pain, vol. […] 89, 53-63 (2000). These tests were conducted with ICR mice, in accordance with guidelines established by the International Association for the Study of Pain. Compounds of the invention were used as solutions of about 3-20 mg/mL in aqueous solution at about pH 8. […] The test animals were monitored for at least 40 minutes, during which time the number of flinches occurring during each 5-minute period were observed and recorded. A cohort of 12 animals were used for each dose level of each compound tested.
The compounds were administered orally in a single dose, of 30, 100, and 200 mg/kg, one hour prior to injection of formalin Pain response was measured by flinching frequency.

A further data set concerns HIV-1. Put plainly: U1 latent infection assay, antiviral (reverse transcriptase). It counts as cell-based. The following applies: U1 latent infection assay. The method, then:
Histocytic leukemia cell line U937, latently infected with HIV-1, are treated with TNFα to induce virus expression in the presence of test compound. Antiviral activity is determined as a reduction in reverse transcriptase after 72 hr incubation.
TI=TC/IC; also referred to as Therapeutic Index values (TI) or Antiviral Index (AI)
The histocytic leukemia cell line U937, latently infected with HIV-1, was treated with TNFα to induce virus expression in the presence of test compound. Antiviral activity was determined as a reduction in reverse transcriptase after 72 hr incubation. Temacrazine, an inhibitor of HIV transcription initiation, was used as the positive control for the assay.

With `O=C(O)c1ccc2c(c1)nc(Nc1cccc(Cl)c1)c1ccncc12` [Compound K, 5-(3-chlorophenylamino)benzo[c][2,6]naphthyridine-8-carboxylic acid], the CLs came to 41.7 mL/min/kg in data set [1] (5 mg/kg IV) and 1.7 mL/min/kg in data set [2] (5.2 mg/kg IV). Besides, the figures for the “Terminal T1/2” value in data set [1] (5 mg/kg IV) and in data set [2] (5.2 mg/kg IV) were 5.0 h and 11.6 h, respectively. The “% F0-inf” value in data set [1] (25 mg/kg PO) is reported as 20.1%; in data set [2] (10.5 mg/kg PO), 47.8%. Further, the AUC(0-inf) in data set [1] (in vivo, 5 mg/kg IV, 25 mM sodium phosphate buffer) amounted to 2000 ng·h/mL; in data set [1] (in vivo, 25 mg/kg PO, 25 mM phosphate buffer) it was 2010 ng·h/mL; in data set [2] (plasma, 5.2 mg/kg IV, 25 mM sodium phosphate buffer), 44300 ng·h/mL; in data set [2] (plasma, 10.5 mg/kg PO, 25 mM phosphate buffer), 42300 ng·h/mL. Besides, the Cmax in data set [1] (in vivo, 5 mg/kg IV) came to 6700 ng/mL; in data set [1] (in vivo, 25 mg/kg PO) it was 311 ng/mL; in data set [2] (plasma, 5.2 mg/kg IV), 38700 ng/mL; in data set [2] (plasma, 10.5 mg/kg PO), 7370 ng/mL. In addition, the Vd in data set [1] (in vivo, 5 mg/kg IV, read-out: Vdss) is 18.1 L/kg; in data set [2] (plasma, 5.2 mg/kg IV, read-out: Vdss), 2 L/kg. Also, the half-life in data set [1] (in vivo, 25 mg/kg PO, read-out: Terminal T1/2 (converted)) is 7.1 h; in data set [2] (plasma, 10.5 mg/kg PO, read-out: Terminal T1/2 (converted)) it was 12.3 h. Moreover, the “formalin-induced flinching, Phase II” value in data set [3] (10-40 minute phase post-injection, single oral dose 30, 100, 200 mg/kg) is “significantly reduced formalin-induced flinching; also recorded: statistically significant effects were seen in two of the three test groups”; in data set [3] (10-40 minute phase, 30 mg/kg oral), “effective”; in data set [3] (10-40 minute phase, 200 mg/kg oral), “effective”. Also, in data set [3] (first 9 minute phase post-injection, single oral dose 30, 100, 200 mg/kg one hour prior to formalin), the “formalin-induced flinching, Phase I” value was “neither compound affected rates of flinching; also recorded: not statistically significant”. Also, the “inhibition of virus production” value with HIV-1 is on record as “no significant inhibition of virus production”.

Source of the values: patent publication US20100267753A1, “METHODS OF TREATING DISORDERS ASSOCIATED WITH PROTEIN KINASE CK2 ACTIVITY” (priority 2009, published 2010).
